Test results as given in patent US8163728B2, “Pyrazoles” (Hoffmann-La Roche Inc., priority 2009, dated 2012).

Biological target: T1, GABA A α5 (Homo sapiens, UniProt P18507+P31644)
T1 construct: expressed in transfected cells; host or cells: HEK293 cells, transiently transfected; membranes prepared from cell pellets
Assay: [3H]flumazenil competition binding, human GABA A α5β3γ2 receptors in HEK293 cell membranes
Settings: human receptor α5β3γ2 transiently transfected in HEK293; 0.5 nM [3H]flumazenil; 1 hour at 4° C.; means of two determinations; read-out: hKi GABA A α5
Procedure: The affinity of compounds at GABA A receptor subtypes was measured by competition for [3H]flumazenil (85 Ci/mmol; Roche) binding to HEK293 cells expressing rat (stably transfected) or human (transiently transfected) receptors of composition α1β3γ2, α2β3γ2, α3β3γ2 and α5β3γ2.
Cell pellets were suspended in Krebs-tris buffer (4.8 mM KCl, 1.2 mM CaCl2, 1.2 mM MgCl2, 120 mM NaCl, 15 mM Tris; pH 7.5; binding assay buffer), homogenized by polytron for ca. 20 sec on ice and centrifuged for 60 min at 4° C. (50000 g; Sorvall, rotor: SM24=20000 rpm). The cell pellets were re-suspended in Krebs-tris buffer and homogenized by polytron for ca. 15 sec on ice. Protein was measured (Bradford method, Bio-Rad) and aliquots of 1 mL were prepared and stored at −80° C.
Assays were incubated to equilibrium for 1 hour at 4° C. and harvested onto GF/C uni-filters (Packard) by filtration using a Packard harvester and washing with ice-cold wash buffer (50 mM Tris; pH 7.5). After drying, filter-retained radioactivity was detected by liquid scintillation counting. Ki values were calculated using Excel-Fit (Microsoft) and are the means of two determinations.

| Structure (SMILES) | Ki [nM] |
| --- | --- |
| Cc1onc(-c2ccccc2)c1COc1cc(C(=O)NC(C)C)n(C)n1 [Example 46, 2-Methyl-5-(5-methyl-3-phenyl-isoxazol-4-ylmethoxy)-2H-pyrazole-3-carboxylic acid isopropylamide] | 40.9 |
| Cc1onc(-c2ccccc2)c1COc1cc(C(=O)NN(C)C)n(C)n1 [Example 47, 2-Methyl-5-(5-methyl-3-phenyl-isoxazol-4-ylmethoxy)-2H-pyrazole-3-carboxylic acid N′,N′-dimethyl-hydrazide] | 50.3 |
| Cc1onc(-c2ccc(F)cc2)c1COc1cc(C(=O)NN2CCCCC2)n(C)n1 [Example 49, 5-[3-(4-Fluoro-phenyl)-5-methyl-isoxazol-4-ylmethoxy]-2-methyl-2H-pyrazole-3-carboxylic acid piperidin-1-ylamide] | 19.3 |
| Cc1onc(-c2ccc(F)cc2)c1COc1cc(C(=O)NN2CCOCC2)n(C)n1 [Example 50, 5-[3-(4-Fluoro-phenyl)-5-methyl-isoxazol-4-ylmethoxy]-2-methyl-2H-pyrazole-3-carboxylic acid morpholin-4-ylamide] | 3.5 |
| Cc1onc(-c2ccc(F)cc2)c1COc1cc(C(=O)NC(C)C)n(C)n1 [Example 52, 5-[3-(4-Fluoro-phenyl)-5-methyl-isoxazol-4-ylmethoxy]-2-methyl-2H-pyrazole-3-carboxylic acid isopropylamide] | 7.4 |
| Cc1onc(-c2ccc(F)cc2)c1COc1cc(C(=O)NC2CCOCC2)n(C)n1 [Example 53, 5-[3-(4-Fluoro-phenyl)-5-methyl-isoxazol-4-ylmethoxy]-2-methyl-2H-pyrazole-3-carboxylic acid (tetrahydro-pyran-4-yl)-amide] | 1.2 |
| Cc1onc(-c2ccc(F)cc2)c1COc1cc(C(N)=O)n(C)n1 [Example 54, 5-[3-(4-Fluoro-phenyl)-5-methyl-isoxazol-4-ylmethoxy]-2-methyl-2H-pyrazole-3-carboxylic acid amide] | 12 |
| Cc1onc(-c2ccc(F)cc2)c1COc1cc(C(=O)NC(C)(C)CO)n(C)n1 [Example 55, 5-[3-(4-Fluoro-phenyl)-5-methyl-isoxazol-4-ylmethoxy]-2-methyl-2H-pyrazole-3-carboxylic acid (2-hydroxy-1,1-dimethyl-ethyl)-amide] | 29.6 |
| Cc1onc(-c2ccc(F)cc2)c1COc1cc(C(=O)NC2(C)COC2)n(C)n1 [Example 58, 5-[3-(4-Fluoro-phenyl)-5-methyl-isoxazol-4-ylmethoxy]-2-methyl-2H-pyrazole-3-carboxylic acid (3-methyl-oxetan-3-yl)-amide] | 4.3 |
| COCCNC(=O)c1cc(OCc2c(-c3ccc(F)cc3)noc2C)nn1C [Example 60, 5-[3-(4-Fluoro-phenyl)-5-methyl-isoxazol-4-ylmethoxy]-2-methyl-2H-pyrazole-3-carboxylic acid (2-methoxy-ethyl)-amide] | 13.2 |
| Cc1onc(-c2ccc(F)cc2)c1COc1cc(C(=O)NCC2(O)CC2)n(C)n1 [Example 61, 5-[3-(4-Fluoro-phenyl)-5-methyl-isoxazol-4-ylmethoxy]-2-methyl-2H-pyrazole-3-carboxylic acid (1-hydroxy-cyclopropylmethyl)-amide] | 7.4 |
| Cc1onc(-c2ccc(F)cc2)c1COc1cc(C(=O)NCCO)n(C)n1 [Example 62, 5-[3-(4-Fluoro-phenyl)-5-methyl-isoxazol-4-ylmethoxy]-2-methyl-2H-pyrazole-3-carboxylic acid (2-hydroxy-ethyl)-amide] | 7.1 |
| Cc1onc(-c2ccc(F)cc2)c1COc1cc(C(=O)NCC(C)(C)CO)n(C)n1 [Example 65, 5-[3-(4-Fluoro-phenyl)-5-methyl-isoxazol-4-ylmethoxy]-2-methyl-2H-pyrazole-3-carboxylic acid (3-hydroxy-2,2-dimethyl-propyl)-amide] | 5.8 |
| Cc1onc(-c2ccc(F)cc2)c1COc1cc(C(=O)NCC(C)(C)O)n(C)n1 [Example 66, 5-[3-(4-Fluoro-phenyl)-5-methyl-isoxazol-4-ylmethoxy]-2-methyl-2H-pyrazole-3-carboxylic acid (2-hydroxy-2-methyl-propyl)-amide] | 6.5 |
| Cc1onc(-c2ccc(F)cc2)c1COc1cc(C(=O)N[C@H]2CCC[C@@H]2O)n(C)n1 [Example 73, (+5-[3-(4-Fluoro-phenyl)-5-methyl-isoxazol-4-ylmethoxy]-2-methyl-2H-pyrazole-3-carboxylic acid ((1R,2R)-2-hydroxy-cyclopentyl)-amideand/or 5-[3-(4-Fluoro-phenyl)-5-methyl-isoxazol-4-ylmethoxy]-2-methyl-2H-pyrazole-3-carboxylic acid ((18,28)-2-hydroxy-cyclopentyl)-amide] | 9.4 |
| Cc1onc(-c2ccccn2)c1COc1cc(C(=O)NC(C)C)n(C)n1 [Example 78, 2-Methyl-5-(5-methyl-3-pyridin-2-yl-isoxazol-4-ylmethoxy)-2H-pyrazole-3-carboxylic acid isopropylamide] | 30.2 |
| Cc1onc(-c2ccc(F)cn2)c1COc1cc(C(=O)NN(C)C)n(C)n1 [Example 82, 5-[3-(5-Fluoro-pyridin-2-yl)-5-methyl-isoxazol-4-ylmethoxy]-2-methyl-2H-pyrazole-3-carboxylic acid N′,N′-dimethyl-hydrazide] | 29.5 |
| Cc1onc(-c2ccc(F)cn2)c1COc1cc(C(=O)NC2CCOCC2)n(C)n1 [Example 84, 5-[3-(5-Fluoro-pyridin-2-yl)-5-methyl-isoxazol-4-ylmethoxy]-2-methyl-2H-pyrazole-3-carboxylic acid (tetrahydro-pyran-4-yl)-amide] | 3.5 |
| CCCCc1noc(C)c1COc1cc(C(=O)NC(C)C)n(C)n1 [Example 86, 5-(3-Butyl-5-methyl-isoxazol-4-ylmethoxy)-2-methyl-2H-pyrazole-3-carboxylic acid isopropylamide] | 39.2 |
| CCCCc1noc(C)c1COc1cc(C(=O)NC2CCOCC2)n(C)n1 [Example 88, 5-(3-Butyl-5-methyl-isoxazol-4-ylmethoxy)-2-methyl-2H-pyrazole-3-carboxylic acid (tetra-hydro-pyran-4-yl)-amide] | 8.7 |
| Cc1onc(C2CCOCC2)c1COc1cc(C(=O)NC2CCOCC2)n(C)n1 [Example 90, 2-Methyl-5-[5-methyl-3-(tetrahydro-pyran-4-yl)-isoxazol-4-ylmethoxy]-2H-pyrazole-3-carboxylic acid (tetrahydro-pyran-4-yl)-amide] | 24.4 |

The remaining lines, values ahead:

| Ki [nM] | Structure (SMILES) |
| --- | --- |
| 47.3 | Cc1onc(-c2ccccc2)c1COc1cc(C(N)=O)n(C)n1 [Example 45, 2-Methyl-5-(5-methyl-3-phenyl-isoxazol-4-ylmethoxy)-2H-pyrazole-3-carboxylic acid amide] |
| 23.3 | Cc1onc(-c2ccc(F)cc2)c1COc1cc(C(=O)NN(C)C)n(C)n1 [Example 48, 5-[3-(4-Fluoro-phenyl)-5-methyl-isoxazol-4-ylmethoxy]-2-methyl-2H-pyrazole-3-carboxylic acid N′,N′-dimethyl-hydrazide] |
| 11.4 | Cc1onc(-c2ccc(F)cc2)c1COc1cc(C(=O)NN2CCCC2)n(C)n1 [Example 51, 5-[3-(4-Fluoro-phenyl)-5-methyl-isoxazol-4-ylmethoxy]-2-methyl-2H-pyrazole-3-carboxylic acid pyrrolidin-1-ylamide] |
| 13.1 | Cc1onc(-c2ccc(F)cc2)c1COc1cc(C(=O)Nc2ccn(C)n2)n(C)n1 [Example 63, 5-[3-(4-Fluoro-phenyl)-5-methyl-isoxazol-4-ylmethoxy]-2-methyl-2H-pyrazole-3-carboxylic acid (1-methyl-1H-pyrazol-3-yl)-amide] |
| 16.1 | CC(=O)NCCNC(=O)c1cc(OCc2c(-c3ccc(F)cc3)noc2C)nn1C [Example 64, 5-[3-(4-Fluoro-phenyl)-5-methyl-isoxazol-4-ylmethoxy]-2-methyl-2H-pyrazole-3-carboxylic acid (2-acetylamino-ethyl)-amide] |
| 16.5 | Cc1onc(-c2ccc(F)cc2)c1COc1cc(C(=O)N2CC(O)C2)n(C)n1 [Example 71, {5-[3-(4-Fluoro-phenyl)-5-methyl-isoxazol-4-ylmethoxy]-2-methyl-2H-pyrazol-3-yl}-(3-hydroxy-azetidin-1-yl)-methanone] |
| 45.8 | Cc1onc(-c2ccc(F)cc2)c1COc1cc(C(=O)N2CC3(COC3)C2)n(C)n1 [Example 77, {5-[3-(4-Fluoro-phenyl)-5-methyl-isoxazol-4-ylmethoxy]-2-methyl-2H-pyrazol-3-yl}-(2-oxa-6-aza-spiro[3.3]hept-6-yl)-methanone] |
| 6.5 | Cc1onc(-c2ccccn2)c1COc1cc(C(=O)NC2CCOCC2)n(C)n1 [Example 79, 2-Methyl-5-(5-methyl-3-pyridin-2-yl-isoxazol-4-ylmethoxy)-2H-pyrazole-3-carboxylic acid (tetrahydro-pyran-4-yl)-amide] |
| 11 | Cc1onc(-c2ccc(F)cn2)c1COc1cc(C(=O)NCCO)n(C)n1 [Example 83, 5-[3-(5-Fluoro-pyridin-2-yl)-5-methyl-isoxazol-4-ylmethoxy]-2-methyl-2H-pyrazole-3-carboxylic acid (2-hydroxy-ethyl)-amide] |
| 27.6 | CCCCc1noc(C)c1COc1cc(C(=O)NCCO)n(C)n1 [Example 85, 5-(3-Butyl-5-methyl-isoxazol-4-ylmethoxy)-2-methyl-2H-pyrazole-3-carboxylic acid (2-hydroxy-ethyl)-amide] |
